From publication PMC6269660, “Anti-Inflammatory Cycloartane-Type Saponins of Astragalus membranaceus” (Molecules, 2013) come the findings set out here.

What all share (format): cell-based
Data set [1] relates to LPS-induced NO production in RAW 264.7 macrophage cells. The data set can be described thus: Inhibition of LPS-induced NO production (nitrite, Griess reagent). Conditions: for inhibition of NO production (in words): LPS-induced RAW264.7 macrophages. Here is the method:
Previous studies have already reported on the anti-inflammatory effects of components obtained from A. membranaceus. Thus, we also investigated the inhibitory effects of compounds 1–5 on NO production by using the Griess reaction to measure nitrite, a soluble oxidation product of NO, in the culture medium of LPS-induced RAW 264.7 macrophages.
(§1) Assays for NO production and cell viability were carried out as previously described. Briefly, RAW 264.7 macrophages were harvested and seeded in 24-well plates (3 × 10^5 cells/well) for the measurement of NO production. The plates were pretreated with various concentrations of samples for 1 h and incubated with LPS (1 μg/mL) for 7 h. The amount of NO was determined by the nitrite concentration in the cultured RAW264.7 macrophage supernatants using the Griess reagent. The cell viability was evaluated by MTT reduction.
For orientation: Griess reagent forms a coloured azo dye with nitrite.

The nature of data set [2]: Cell viability by MTT reduction. Conditions: mouse, at a concentration of 100 μM, RAW 264.7 cells, MTT reduction, mean ± SD of three independent experiments. Here is the method:
as §1

In a further data set the test system is RAW 264.7 macrophages. The data set can be described thus: Cell viability by MTT reduction. Conditions: RAW 264.7 cells treated with compounds. As for the experimental part: as §1
On the technique in general: Tetrazolium dyes change colour on reduction, which living cells bring about.

With `O=C(O)/C=C/c1ccc(O)c(O)c1` [Caffeic acid, reference compound], the IC50 in data set [1] (Mus musculus, RAW264.7, LPS-activated RAW 264.7 cells, pretreated 1 h with compounds, then LPS (1 μg/mL) for 7 h, mean ± SD of three independent experiments) came to 830 ± 1150 nM. The viability at 8 h, 100 µM in data set [2] worked out at 82.2 ± 1.64%.
Regarding `CC(=O)OC1C(OC2CCC34CC35CCC3(C)C(C(C)CCC(O)C(C)(C)O)CCC3(C)C5CC(OC3OC(CO)C(O)C(O)C3O)C4C2(C)C)OCC(O)C1O` [Compound 1, 3-O-β-(2'-O-acetyl)-D-xylopyranosyl-6-O-β-D-glucopyranosyl-(24S)-3β,6α,24α,25-tetrahydroxy-9,19-cyclolanostane], the “inhibition of NO production (in words)” value in data set [1] is “significant inhibition of NO production”. In data set [2] (RAW 264.7 macrophages), this compound gave a viability at 8 h, 100 µM of 93.2 ± 6.96%. In the data set with RAW 264.7 macrophages, the “cell toxicity / influence on cell viability (in words)” value (from here on “cell toxicity / influence”) is on record as “without cytotoxicity”.
With `CC(=O)OC1C(O)COC(OC2CCC34CC35CCC3(C)C(C(C)CCC(O)C(C)(C)O)C(O)CC3(C)C5CC(OC3OC(CO)C(O)C(O)C3O)C4C2(C)C)C1OC(C)=O` (centres unmarked) [Compound 2, agroastragaloside I], the viability at 8 h, 100 µM in data set [2] (RAW 264.7 macrophages) is 54.5 ± 1.21%. Besides, the “cell toxicity / influence” value with RAW 264.7 macrophages is “Some cell toxicity was observed”.
For `CC(=O)OC1C(OC2CCC34CC35CCC3(C)C(C(C)CCC(O)C(C)(C)O)C(O)CC3(C)C5CC(OC3OC(CO)C(O)C(O)C3O)C4C2(C)C)OCC(O)C1O` (centres unmarked) [Compound 3, agroastragaloside II] the same measures were 47.6 ± 3.4% and “Some cell toxicity was observed”.
On to `CC(=O)O[C@@H]1[C@@H](O)[C@H](O[C@H]2CC[C@]34C[C@]35CC[C@]3(C)[C@@H]([C@@]6(C)CC[C@@H](C(C)(C)O)O6)[C@@H](O)C[C@@]3(C)[C@@H]5C[C@H](O[C@@H]3O[C@H](CO)[C@@H](O)[C@H](O)[C@H]3O)[C@H]4C2(C)C)OC[C@H]1O` [Compound 4, isoastragaloside II], for which the viability at 8 h, 100 µM in data set [2] (RAW 264.7 macrophages) came out at 69 ± 1.82%. For the same compound, the “cell toxicity / influence” value in the data set with RAW 264.7 macrophages was “Some cell toxicity was observed”.
Regarding `CC(C)(O)[C@@H]1CC[C@](C)([C@H]2[C@@H](O)C[C@@]3(C)[C@@H]4C[C@H](O[C@@H]5O[C@H](CO)[C@@H](O)[C@H](O)[C@H]5O)[C@H]5C(C)(C)[C@@H](O[C@@H]6OC[C@@H](O)[C@H](O)[C@H]6O)CC[C@@]56C[C@@]46CC[C@]23C)O1` [Compound 5, astragaloside IV], the “inhibition of NO production (in words)” value in data set [1] is given as “significant inhibition of NO production”. Besides, the viability at 8 h, 100 µM in data set [2] is 94.4 ± 4.33%. Further, the “cell toxicity / influence” value in the data set on RAW 264.7 macrophages is reported as “without cytotoxicity”.

In general, IC50 refers to the midpoint of a concentration-inhibition curve. One may read the viability as a read-out of living cells in per cent, often relative to untreated cells.
